The target of data set [1] is Histone deacetylase 1 (Homo sapiens, UniProt Q13547). Put plainly: Inhibition of HDAC1 (unknown origin) after 24 hrs by SAMDI mass spectroscopic analysis.
Data set [2] concerns the target Histone deacetylase 2 (Homo sapiens, UniProt Q92769). Briefly: Inhibition of HDAC2 (unknown origin) after 24 hrs by SAMDI mass spectroscopic analysis.
The target of data set [3] is Histone deacetylase 3 (Homo sapiens, UniProt O15379). Put plainly: Inhibition of HDAC3 (unknown origin) after 5 hrs by SAMDI mass spectroscopic analysis.
Histone deacetylase 3, sequence (O15379 whole entry): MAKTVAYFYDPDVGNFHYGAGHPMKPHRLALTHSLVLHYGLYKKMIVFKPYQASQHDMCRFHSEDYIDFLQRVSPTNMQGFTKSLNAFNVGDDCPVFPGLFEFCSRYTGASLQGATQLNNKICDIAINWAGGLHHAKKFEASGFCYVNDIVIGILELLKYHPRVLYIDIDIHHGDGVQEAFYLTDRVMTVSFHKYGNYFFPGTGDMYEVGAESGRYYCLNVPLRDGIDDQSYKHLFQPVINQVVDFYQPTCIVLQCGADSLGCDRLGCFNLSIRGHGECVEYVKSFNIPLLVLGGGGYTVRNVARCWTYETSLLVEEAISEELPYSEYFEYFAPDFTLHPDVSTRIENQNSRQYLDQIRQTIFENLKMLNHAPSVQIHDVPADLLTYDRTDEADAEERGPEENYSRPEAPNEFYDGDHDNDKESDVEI
For data set [4], the target named is T1, Protein deacetylase HDAC6 (Homo sapiens, UniProt Q9UBN7).
T1 sequence (Q9UBN7 whole entry): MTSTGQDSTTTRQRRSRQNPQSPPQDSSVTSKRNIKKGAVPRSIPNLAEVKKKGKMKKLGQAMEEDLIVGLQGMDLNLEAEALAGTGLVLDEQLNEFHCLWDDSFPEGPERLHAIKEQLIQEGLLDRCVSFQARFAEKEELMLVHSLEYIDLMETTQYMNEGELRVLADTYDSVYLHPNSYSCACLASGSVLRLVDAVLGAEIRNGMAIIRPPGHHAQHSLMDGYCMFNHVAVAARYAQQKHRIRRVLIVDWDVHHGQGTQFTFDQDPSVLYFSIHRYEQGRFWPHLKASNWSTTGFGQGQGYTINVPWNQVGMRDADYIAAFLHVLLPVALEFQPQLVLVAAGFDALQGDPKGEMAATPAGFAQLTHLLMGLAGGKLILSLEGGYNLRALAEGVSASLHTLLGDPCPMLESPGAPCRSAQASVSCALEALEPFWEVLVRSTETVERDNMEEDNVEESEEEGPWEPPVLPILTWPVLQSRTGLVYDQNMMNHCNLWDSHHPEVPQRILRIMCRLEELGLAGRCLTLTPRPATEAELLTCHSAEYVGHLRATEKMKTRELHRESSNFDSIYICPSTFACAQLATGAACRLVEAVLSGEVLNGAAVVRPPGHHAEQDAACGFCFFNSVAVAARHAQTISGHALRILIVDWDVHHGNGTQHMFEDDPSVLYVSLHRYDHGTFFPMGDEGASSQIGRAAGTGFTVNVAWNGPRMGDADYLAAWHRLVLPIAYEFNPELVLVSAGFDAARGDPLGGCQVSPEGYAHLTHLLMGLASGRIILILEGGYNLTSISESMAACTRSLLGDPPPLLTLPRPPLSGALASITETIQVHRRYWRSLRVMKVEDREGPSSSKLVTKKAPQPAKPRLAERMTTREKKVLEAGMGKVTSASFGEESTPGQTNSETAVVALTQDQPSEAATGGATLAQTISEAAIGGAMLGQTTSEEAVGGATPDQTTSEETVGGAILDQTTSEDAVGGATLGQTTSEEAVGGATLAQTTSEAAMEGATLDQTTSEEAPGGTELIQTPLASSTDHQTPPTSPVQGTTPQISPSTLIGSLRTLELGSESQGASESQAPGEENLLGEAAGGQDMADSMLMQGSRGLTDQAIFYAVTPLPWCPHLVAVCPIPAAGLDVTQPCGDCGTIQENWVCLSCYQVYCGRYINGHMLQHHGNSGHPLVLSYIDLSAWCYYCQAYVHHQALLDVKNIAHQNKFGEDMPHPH
Put plainly: Inhibition of HDAC6 (unknown origin) after 20 hrs by SAMDI mass spectroscopic analysis.

For data set [5], the target named is T2, Histone deacetylase 8 (Homo sapiens, UniProt Q9BY41).
T2 sequence (Q9BY41 whole entry): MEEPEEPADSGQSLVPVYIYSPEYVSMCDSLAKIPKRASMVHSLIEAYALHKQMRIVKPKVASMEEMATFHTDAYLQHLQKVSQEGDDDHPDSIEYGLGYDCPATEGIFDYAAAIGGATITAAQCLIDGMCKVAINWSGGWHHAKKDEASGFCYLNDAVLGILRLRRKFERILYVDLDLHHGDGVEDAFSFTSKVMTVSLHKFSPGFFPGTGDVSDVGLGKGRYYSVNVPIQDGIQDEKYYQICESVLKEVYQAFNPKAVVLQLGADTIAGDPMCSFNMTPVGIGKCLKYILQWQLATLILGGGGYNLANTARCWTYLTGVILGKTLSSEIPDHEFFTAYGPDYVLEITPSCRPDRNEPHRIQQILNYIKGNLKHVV
Put plainly: Inhibition of HDAC8 (unknown origin) after 2.5 hrs by SAMDI mass spectroscopic analysis.

In data set [6] the target is T3, Prostaglandin G/H synthase 2 (Homo sapiens) (UniProt P35354).
T3 sequence (whole entry): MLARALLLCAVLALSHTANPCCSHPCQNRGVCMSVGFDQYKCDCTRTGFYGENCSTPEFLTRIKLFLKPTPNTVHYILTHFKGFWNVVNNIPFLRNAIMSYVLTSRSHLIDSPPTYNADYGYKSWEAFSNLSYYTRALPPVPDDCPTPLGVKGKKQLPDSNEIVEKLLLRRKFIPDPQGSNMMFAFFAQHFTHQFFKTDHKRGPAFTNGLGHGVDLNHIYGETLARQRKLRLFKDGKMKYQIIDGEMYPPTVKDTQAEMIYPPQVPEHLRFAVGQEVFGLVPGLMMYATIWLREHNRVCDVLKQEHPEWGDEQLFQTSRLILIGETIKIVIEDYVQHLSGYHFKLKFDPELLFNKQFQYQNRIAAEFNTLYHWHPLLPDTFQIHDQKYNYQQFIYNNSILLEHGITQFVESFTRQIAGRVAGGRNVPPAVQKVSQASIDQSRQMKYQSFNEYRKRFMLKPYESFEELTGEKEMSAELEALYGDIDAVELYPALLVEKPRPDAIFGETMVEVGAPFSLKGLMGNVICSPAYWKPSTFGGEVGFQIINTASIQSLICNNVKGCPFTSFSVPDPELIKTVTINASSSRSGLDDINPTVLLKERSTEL
Put plainly: Inhibition of recombinant human COX2 at 10 uM using arachidonic acid as substrate preincubated for 15 mins followed by substrate addition for 2 mins by Cayman based fluorescence assay.

Data set [7] can be described thus: Cytotoxicity against human MCF7 cells assessed as cell growth inhibition after 72 hrs by MTT assay. In kind it is functional, cell-based. As to conditions: MCF7, 72 h.
The nature of data set [8]: Cytotoxicity against human A549 cells assessed as cell growth inhibition after 72 hrs by MTT assay. In kind it is functional, cell-based. As to conditions: A549, 72 h. On the technique in general: Tetrazolium dyes change colour on reduction, which living cells bring about.
Data set [9] in a line: Cytotoxicity against human HCT116 cells assessed as cell growth inhibition after 72 hrs by MTT assay. As to conditions: HCT-116, 72 h. In kind it is functional, cell-based.
A short description of data set [10]: Cytotoxicity against human LNCAP cells assessed as cell growth inhibition after 72 hrs by MTT assay. In kind it is functional, cell-based.
Data set [11] can be described thus: Cytotoxicity against human DU145 cells assessed as cell growth inhibition after 72 hrs by MTT assay. Type of data set: functional, cell-based. Conditions: DU-145, 72 h.
The nature of data set [12]: Cytotoxicity against African green monkey Vero cells assessed as cell growth inhibition after 72 hrs by MTT assay. Conditions: African green monkey (Chlorocebus sabaeus). Type of data set: toxicity, cell-based.
The nature of data set [13]: Cytotoxicity against human HeLa cells assessed as cell growth inhibition after 72 hrs by MTT assay.
The target in data set [14] is T4, Protein deacetylase HDAC6 (Homo sapiens) (UniProt Q9UBN7).
T4 sequence (whole entry): T1 sequence (Q9UBN7 whole entry)
Put plainly: Inhibition of HDAC6 in human LNCAP cells assessed as acetylated tubulin accumulation in cytosol at 1.5 uM after 24 hrs by Western blot analysis. In kind it is cell-based. (In general: Immunoblotting shows a protein as a band on a membrane.)

Data set [15] concerns LNCaP. Briefly: Inhibition of class 1 HDAC in human LNCAP cells assessed as acetylated histone H4 accumulation at 1.5 uM after 24 hrs by Western blot analysis. Type of data set: cell-based.
Data set [16] has as its system LNCaP. Briefly: Inhibition of HDAC in human LNCAP cells assessed as down regulation of COX2 expression at 1.5 uM after 24 hrs by Western blot analysis. In kind it is cell-based.
Data set [17] has as its system LNCaP. Put plainly: Induction of cell cycle arrest in human LNCAP cells assessed as accumulation at lesser G1 phase at 2.5 uM after 24 hrs by propidium iodide staining based FACS analysis (reference value: 1.59%). In kind it is functional. For orientation: In flow cytometry, cells or beads pass a laser one at a time.
Data set [18] deals with LNCaP. Briefly: Induction of cell cycle arrest in human LNCAP cells assessed as accumulation at G1 phase at 2.5 uM after 24 hrs by propidium iodide staining based FACS analysis (reference value: 69.5%). Type of data set: functional.
Data set [19] has as its system LNCaP. Briefly: Induction of cell cycle arrest in human LNCAP cells assessed as accumulation at S phase at 2.5 uM after 24 hrs by propidium iodide staining based FACS analysis (reference value: […]). Type of data set: functional.
Data set [20] concerns LNCaP. Briefly: Induction of cell cycle arrest in human LNCAP cells assessed as accumulation at G2 phase at 2.5 uM after 24 hrs by propidium iodide staining based FACS analysis (reference value: 1.08%). In kind it is functional.
Data set [21] concerns LNCaP. Briefly: Induction of cell cycle arrest in human LNCAP cells assessed as accumulation at greater G2 phase at 2.5 uM after 24 hrs by propidium iodide staining based FACS analysis (reference value: 0.20%). Type of data set: functional.
Data set [22] has as its system BEAS2B. Conditions: Homo sapiens, at 1 µM.
Description: Inhibition of HDAC in human BEAS2B cells assessed as reduction of NTHi-induced NFkappaB activation at 1 uM preincubated for 1 hr followed by NTHi stimulation for 5 hrs by luciferase reporter gene assay
The subject of data set [23] is LNCaP. Briefly: Induction of cell cycle arrest in human LNCAP cells assessed as accumulation at G1 phase at 40 uM after 24 hrs by propidium iodide staining based FACS analysis (reference value: 69.5%). In kind it is functional.
Data set [24] has as its system LNCaP. Put plainly: Induction of cell cycle arrest in human LNCAP cells assessed as accumulation at S phase at 40 uM after 24 hrs by propidium iodide staining based FACS analysis (reference value: […]). In kind it is functional.
Data set [25] has as its system LNCaP. Put plainly: Induction of cell cycle arrest in human LNCAP cells assessed as accumulation at G2 phase at 40 uM after 24 hrs by propidium iodide staining based FACS analysis (reference value: 1.08%). In kind it is functional.
Data set [26] has as its system LNCaP. Put plainly: Induction of cell cycle arrest in human LNCAP cells assessed as accumulation at lesser G1 phase at 40 uM after 24 hrs by propidium iodide staining based FACS analysis (reference value: 1.59%). In kind it is functional.
In data set [27] the test system is LNCaP. Briefly: Induction of cell cycle arrest in human LNCAP cells assessed as accumulation at greater G2 phase at 40 uM after 24 hrs by propidium iodide staining based FACS analysis (reference value: 0.20%). Type of data set: functional.

What is called IC50 is the point on the concentration scale where inhibition reaches its midpoint. One may read the inhibition as the share of the control response that was lost under treatment.

Calls of active or inactive are those of the source. The rule behind the calls is not given here.

Histone deacetylase 1, sequence (Q13547 whole entry): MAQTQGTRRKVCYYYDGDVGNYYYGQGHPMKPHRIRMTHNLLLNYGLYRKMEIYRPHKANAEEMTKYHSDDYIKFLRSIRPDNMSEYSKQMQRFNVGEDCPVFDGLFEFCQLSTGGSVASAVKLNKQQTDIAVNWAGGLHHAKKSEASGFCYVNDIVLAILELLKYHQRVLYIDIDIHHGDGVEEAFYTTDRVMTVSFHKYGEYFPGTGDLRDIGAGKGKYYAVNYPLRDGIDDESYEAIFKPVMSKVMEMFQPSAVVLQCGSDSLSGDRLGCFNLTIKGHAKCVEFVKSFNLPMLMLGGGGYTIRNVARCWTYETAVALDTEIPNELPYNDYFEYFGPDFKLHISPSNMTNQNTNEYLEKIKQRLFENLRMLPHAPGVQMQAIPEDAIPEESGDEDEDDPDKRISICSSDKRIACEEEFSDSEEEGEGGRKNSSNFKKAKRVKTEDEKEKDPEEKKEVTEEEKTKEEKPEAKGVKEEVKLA
Histone deacetylase 2, sequence (Q92769 whole entry): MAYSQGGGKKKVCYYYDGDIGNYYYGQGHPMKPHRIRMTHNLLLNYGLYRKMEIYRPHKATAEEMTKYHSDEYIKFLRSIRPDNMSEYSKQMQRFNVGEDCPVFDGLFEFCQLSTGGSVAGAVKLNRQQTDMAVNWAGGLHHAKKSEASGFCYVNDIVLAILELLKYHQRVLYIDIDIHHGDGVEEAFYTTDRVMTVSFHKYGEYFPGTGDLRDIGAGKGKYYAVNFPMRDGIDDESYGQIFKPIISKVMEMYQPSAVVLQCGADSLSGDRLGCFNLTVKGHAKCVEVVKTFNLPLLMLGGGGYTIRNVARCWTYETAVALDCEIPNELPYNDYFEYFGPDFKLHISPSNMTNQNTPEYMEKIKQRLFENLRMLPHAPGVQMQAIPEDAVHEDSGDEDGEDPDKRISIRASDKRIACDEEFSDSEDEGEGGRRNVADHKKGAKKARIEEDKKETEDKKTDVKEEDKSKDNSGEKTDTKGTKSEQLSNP

Consider `COC(=O)Cc1c(C)n(Cc2ccc(-c3cn(CCCCCCC(=O)NO)nn3)cc2)c2ccc(OC)cc12`, for which the concentration for half-maximal inhibition (IC50) in [1] was 89 nM; in data set [2] it was 407 nM; in data set [3], 35 nM; in data set [4] it was 10 nM; in data set [5], 135 nM; in data set [7], 9610 nM. Further, the IC50 is 8220 nM in data set [8]; 1670 nM in data set [9]; 1350 nM in [10]; 8170 nM in data set [11]; 4020 nM in data set [13]. In addition, in [6], the inhibition turned out to be 50.8%. Besides, the IC50 at 72 h in data set [12] was 5820 nM. Besides, the inhibition entry in [14], in [15], in data set [16] and in data set [22] was “Active” throughout. Further, the Activity worked out at 0.053% in data set [17]; 46.7% in data set [18]; 47.1% in data set [19]; 1.87% in [20]; 2.06% in data set [21].
As to `Cc1ccc(-c2cc(C(F)(F)F)nn2-c2ccc(S(N)(=O)=O)cc2)cc1` [CELECOXIB], the Activity came out at 69.2% in [23]; 28.4% in data set [24]; 0.85% in data set [25]; 0.59% in [26]; 0.35% in data set [27].

Source of the values: ChEMBL document CHEMBL3875218, “Bifunctional conjugates with potent inhibitory activity towards cyclooxygenase and histone deacetylase” (Bioorg Med Chem, 2017).
